Reference: patent US4026891A, “5- Or 6-pyridazinyl-benzimidazoles and salts thereof” (Boehringer Ingelheim GmbH, priority 1974, dated 1977)
Where a name gives a salt, the structure may show the parent alone.

Tests used:
[1] = test system: isolated, spontaneously beating auricles of the guinea pig; assay: positive inotropic (cardiotonic) activity on isolated auricles; format: cell-based; settings: Cavia porcellus, 10^-5 gm/ml, 30° C., average of at least 5 auricles, read-out: Increase in the force of contraction in %
Protocol: 3. Determination of the positive inotropic (cardiotonic) activity
The positive inotropic activity was determined as the strengthening effect upon the force of contraction of isolated, spontaneously beating auricles of the guinea pig. Freshly isolated auricles were put into a bath of 100 ml of a tyrode solution at a temperature of 30° C. The tyrode solution was infused with carbogen (95% of O2 and 5% of CO2). The spontaneous contractions of the auricles were registered isometrically with a Statham-Force-Displacement-transducer FT 03 C on a Grass polygraph. The auricles were pre-stretched with 1 gm. After an equilibration period of 20-30 minutes the test compound was added at a concentration of 10^-^5 gm/ml.

[2] = test system: thrombocyte aggregation in platelet-rich plasma of healthy human donors; assay: thrombocyte (platelet) aggregation inhibiting activity, method of Born and Cross, collagen-induced; format: cell-based; settings: 10^-4 mol/l, optical density, read-out: Inhibition in % after addition of 10^-4 mol/l, O.D.
Protocol: (1) Determination of thrombocyte aggregation inhibiting activity by the method of Born and Cross [see J. Physiol. 170, 397 (1964)]:
The platelet aggregation inhibiting activity was determined in the platelet-rich plasma of healthy human donors. The rate of decline of the optical density of the platelet suspension was measured and recorded photometrically after the addition of commercial collagen containing 1 mgm of collagen fibrils per ml. From the angle of inclination of the density curve, the rate of aggregation was estimated (Vmax). The optical density was taken as the point on the curve where most light was transmitted (O.D.). To provoke maximum aggregation about 0.01 ml of the collagen solution was added to 1 ml of platelet-rich plasma.

[3] = test system: mongrel dogs (arterial blood pressure); assay: hypotensive activity in anesthetized mongrel dogs; format: in vivo, dog; settings: average of 3 tests
Protocol: (2) Determination of the hypotensive activity:
The hypotensive activity was determined in mongrel dogs of both sexes (body weight between 19 and 26 kg) under chloralose/urethane (54+ 270 mgm/kg i.v.) and nembutal (10 mgm/kg i.v.) anesthesia. After tracheotomy, the animals were attached to a Harvard artificial respirator using normal air. The arterial blood pressure was measured in the arteria femoralis by a Statham pressure transducer P 23 Dc and registered on a Grass polygraph. The compound under investigation was administered in aqueous solution by intravenous injection into the vena saphena.

Row | SMILES | activation at 10 µg/mL [1] [%] | inhibition at 100 µM [2] [%] | Decrease in blood pressure (figure after the slash) ([3]; 1.0 mgm/kg i.v.) [mm Hg] | Decrease in blood pressure (figure before the slash) ([3]; 1.0 mgm/kg i.v.) [mm Hg] | other results
1 | COc1ccc(-c2nc3ccc(-c4ccc(=O)[nH]n4)cc3[nH]2)cc1 [K, 2-(p-Methoxy-phenyl)-5(6)-(3'-oxo-2'H-6'-pyridazinyl)-benzimidazole methanesulfonate] | 33 | – | – | – | –
2 | COc1ccc(-c2nc3ccc(C4=NNC(=O)CC4)cc3[nH]2)cc1 [Compound I, 2-(p-Methoxy-phenyl)-5(6)-(3'-oxo-4',5'-dihydro-2'H-6'-pyridazinyl)-benzimidazole] | – | 100 | – | – | –
3 | Cc1nc2ccc(-c3ccc(N4CCOCC4)nn3)cc2[nH]1 [D, 2-Methyl-5(6)-(3'-morpholino-6'-pyridazinyl)-benzimidazole] | – | 89 | – | – | –
4 | Cc1nc2ccc(-c3ccc(=O)[nH]n3)cc2[nH]1 [B, 2-Methyl-5(6)-(3'-oxo-2'H-6'-pyridazinyl)-benzimidazole hydrochloride] | 20 | 100 | 32 | 33 | Decrease in blood pressure (figure after the slash) ([3]; 0.5 mgm/kg i.v.): 25 mm Hg; Decrease in blood pressure (figure before the slash) ([3]; 0.5 mgm/kg i.v.): 18 mm Hg
5 | O=C1CCC(c2ccc3nc(-c4ccccc4F)[nH]c3c2)=NN1 [E, 2-(o-Fluoro-phenyl)-5(6)-(3'-oxo-4',5'-dihydro-2'H-6'-pyridazinyl)-benzimidazole hydrochloride] | 15 | – | – | – | –
6 | Cc1nc2ccc(C3=NN(C)C(=O)CC3)cc2[nH]1 [G, 2-Methyl-5(6)-(2'-methyl-3'-oxo-4',5'-dihydro-2'H-6'-pyridazinyl)-benzimidazole hydrochloride] | 13 | – | – | – | –
7 | Cc1nc2ccc(C3=NNC(=O)CC3)cc2[nH]1 [Compound A, 2-Methyl-5(6)-(3'-oxo-4',5'-dihydro-2'H-6'-pyridazinyl)-benzimidazole hydrochloride] | 30 | 100 | 38 | 26 | Decrease in blood pressure (figure after the slash) ([3]; 0.25 mgm/kg i.v.): 9 mm Hg; Decrease in blood pressure (figure before the slash) ([3]; 0.25 mgm/kg i.v.): 7 mm Hg
8 | COc1ccc(-c2nc3ccc(C4=NNC(=O)CC4)cc3[nH]2)c(OC)c1 [C, 2-(o,p-Dimethoxy-phenyl)-5(6)-(3'-oxo-4',5'-dihydro-2'H-6'-pyridazinyl)-benzimidazole] | 12 | – | 44 | 33 | Decrease in blood pressure (figure after the slash) ([3]; 0.25 mgm/kg i.v.): 44 mm Hg; Decrease in blood pressure (figure before the slash) ([3]; 0.25 mgm/kg i.v.): 17 mm Hg
9 | O=C1CCC(c2ccc3nc(C(F)(F)F)[nH]c3c2)=NN1 [F, 2-trifluoromethyl-5(6)-(3'-oxo-4',5'-dihydro-2'H-6'-pyridazinyl)-benzimidazole] | – | 100 | – | – | –
10 | O=C1CCC(c2ccc3nc[nH]c3c2)=NN1 [H, 5(6)-(3'-oxo-4',5'-dihydro-2'H-6'-pyridazinyl)-benzimidazole] | – | 100 | – | – | –
